Test results reported in patent publication US20090203661A1, “Betulinic acid, derivatives and analogs thereof and uses therefor” (priority 2006, published 2009).

Legend:
SW480 cells = test: KLF4 mRNA (RT-PCR) in SW480 cells; format: cell-based, human
Procedure: SW480 and HT29 colon cancer cells were treated either with vehicle (DMSO) or indicated compounds and after 24 hr total RNA was extracted using RNeasy Mini kit (Qiagen, Inc., Valencia, Calif.). RNA concentration was measured by UV 260:280 nm absorption ratio and 2 μg RNA was used to synthesize cDNA using Reverse Transcription System (Promega). PCR conditions were as follows: initial denaturation at 94° C. (1 min) followed by 28 cycles of denaturation for 30 s at 94° C., annealing for 60 s at 55° C. and extension at 72° C. for 60 s and a final extension step at 72° C. for 5 min. The mRNA levels were normalized using GAPDH as an internal housekeeping gene. Primers obtained from IDT and used for amplification are as follows: KLF4 (sense 5′-CTATGGCAGGGAGTCCGCTCC-3′ (SEQ ID NO: 1); antisense 5′-ATGACCGACGGGCTGCCGTAC-3′ (SEQ ID NO: 2)) and GAPDH (sense 5′-ACGGATTTGGTCGTATTGGGCG-3′ (SEQ ID NO: 3); antisense 5′-CTCCTGGAAGATGGTGATGG-3′ (SEQ ID NO: 4). PCR products were electrophoresed on 1% agarose gels containing ethidium bromide and visualized under UV transillumination.

PPARγ-GAL4 chimera = PPARγ-GAL4 chimera activation (FIG. 13C); format: cell-based
HT-29 cells [1] = test: miR-27a and ZBTB10 mRNA expression in HT-29 cells; format: cell-based, human
[2] = system: Miapaca-2 pancreatic cancer cells; test: Western blot of Sp proteins in Miapaca-2 cells; format: cell-based; conditions: Miapaca-2, 24 hr
Procedure: RKO colon cancer cells were treated with BA/CN-BA for 24 hr (FIG. 15A) or 48 hr (FIG. 15B) and Miapaca-2 pancreatic cancer cells were treated with BA/CN-BA for 24 hr (FIG. 15C). Whole cell lysates were examined by Western blot analysis.

HT-29 cells [3] = test: Caveolin-1 expression (Western blot) in HT-29 cells; format: cell-based, human; conditions: for caveolin-1 induction: HT-29, 72 hr; for effect of T007 on induced caveolin-1 response: HT-29, cotreatment with T007
Procedure: SW480, HT-29, HCT-15 and Panc-28 (3×10^5) colon cancer cells were seeded in 6-well tissue culture plates in DMEM/Ham's F-12 medium containing 2.5% charcoal-stripped FBS. Protein is extracted from the cells treated either with vehicle or indicated compounds suspended for 24 hr except for caveolin-1 protein which was done for 72 hr. Samples were extracted in high salt buffer [50 mmol/L HEPES, 500 mmol/L NaCl, 1.5 mmol/L MgCl2, 1 mmol/L EGTA, 10% glycerol, and 1% Triton X-100 (pH 7.5), and 5 μL/mL protease inhibitor cocktail (Sigma-Aldrich)]. Samples were incubated at 100° C. for 2 min, separated on either 10% or 12% SDS-PAGE gels and then transferred to polyvinylidene difluoride membrane (PVDF; Bio-Rad, Hercules, Calif.). The PVDF membrane was blocked in 5% TBST-Blotto (10 mM Tris HCl, 150 mM NaCl, pH 8.0, 0.05% Triton X-100, and 5% nonfat dry milk) for about 30 min and was then incubated in fresh 5% TBST-Blotto with 1:1000 for caveolin-1 (Santa Cruz Biotechnology, Santa Cruz, Calif.), 1:1000 for p21 (BD Pharmingen, Frank lakes, NJ) and 1:10000 for β-actin (Sigma) primary antibody overnight with gentle shaking at 4° C. After washing with TBST for 10 min, the membrane was incubated with respective secondary antibody (1:5000) (Santa cruz, Calif.) in 5% TBST-Blotto for 3 hr. The membrane is then washed with TBST for 10 min, incubated with chemiluminiscence reagent from Perkin Elmer for one min and then exposed to Kodak X-OMAT AR autoradiography film (Eastman Kodak, Rochester, N.Y.).

p21 promoter = p21 promoter luciferase transactivation in Panc-28 cells; format: cell-based, human; conditions: for transactivation, p21-luc(Fl) (−2325 to +8): Panc-28; for effect of T007 on induced p21-luc(Fl) luciferase activity: cotreatment with T007
Procedure: Cells were seeded onto the 12-well plates and 0.4 μg of GAL4-Luc, 0.04 μg of β-GAL, 0.04 μg of GAL4DBD-PPARγ, and 0.4 μg of p21-luc(FL) containing −2325 to +8 insert, 0.4 μg of p21-luc (−124) containing −124 to +8 insert and 0.4 μg of p21-LUC (−60) containing −60 to +8 insert were transfected using LipofectAMINE reagent (Invitrogen) following the manufacturer's protocol. Cells were treated either with vehicle or respective compounds suspended in complete medium after 6 hr of transfection. Cell lysate is extracted after 20-22 hr by adding 100 μl of 1× reporter lysis buffer per well and 30 μl of this extract is used to quantitate the luciferase activity using Lumicount (Perkin-Elmer Life and Analytical Sciences). Each experiment is done in triplicate and the results are normalized to the β-GAL activity.

3T3-L1 adipocytes = test: 3T3-L1 differentiation and Oil Red O staining; format: cell-based; conditions: 0.25 μM
Procedure: 3T3-L1 preadipocytes were cultured on poly-lysine-coated coverslips with DMEM and 10% FBS at 5% CO2 in 24-well plates. At 2 days post-confluence, cells were incubated with fresh media supplemented with 3-isobutyl-1-methylxanthine (0.5 mM), dexamethasone (1 μM), insulin (1.7 μM), and indicated compounds (0.25 μM). After 48 hr, cells were changed to fresh media and treated with DMSO or indicated compounds for 5 days. Cells without any treatment for the entire 7 days were used as control. The cells were then fixed with 10% formalin. Fixed cells were washed with 60% isopropanol and stained with filtered 60% Oil Red O in deionized water. After staining, cells were washed with water and photographed.

[4] = system: LNCaP prostate cancer cells; test: Cell proliferation (cell counting), LNCaP prostate cancer cells; format: cell-based; conditions: Homo sapiens, 144 h, 6 days, read-out: 6-day IC50 values for growth inhibition
Procedure: Human carcinoma cell lines LNCaP (prostate) and SK-MEL2 (melanoma) were obtained from American Type Culture Collection (Manassas, Va.). Cell lines were maintained in RPMI 1640 (Sigma) supplemented with 0.22% sodium bicarbonate, 0.011% sodium pyruvate, 0.45% glucose, 0.24% HEPES, 10% FBS, and 10 mL/L of 100× Antibiotic Antimycotic solution (Sigma). Cells were maintained at 37° C. in the presence of 5% CO2.
Prostate and melanoma cancer cells (2×10^4 per well) were plated in 12-well plates and allowed to attach for 24 hr. The medium was then changed to DMEM:Ham's F-12 medium containing 2.5% charcoal-stripped FBS and either vehicle (DMSO) or different concentrations of the compound were added. […] Each experiment was done in triplicate and results are expressed as means±SE for each set of experiments.

IC50 [4] [µM]	Compound	KLF4 expression (SW480 cells)	activation of PPARγ-GAL4 chimera (PPARγ-GAL4 chimera)	ZBTB10 expression (HT-29 cells [1])	miR-27a expression (HT-29 cells [1])	Sp protein expression [2]	caveolin-1 induction (HT-29 cells [3])	effect of T007 on induced caveolin-1 response (HT-29 cells [3])	transactivation, p21-luc(Fl) (−2325 to +8) (p21 promoter)	concentration giving significant induction of p21-luc(60) (p21 promoter; construct lacking GC-rich sites 3 and 4) [µM]	effect of T007 on induced p21-luc(Fl) luciferase activity (p21 promoter)	Oil Red O staining (fat droplets) (3T3-L1 adipocytes)
–	CC(C)C1CCC2(C(=O)O)CCC3(C)C(CCC4C5(C)C=C(C#N)C(=O)C(C)(C)C5CCC43C)C12 (stereo not drawn) [CN-BA]	did not induce KLF4 expression	activates	increased expression of ZBTB10	decreased expression of miR-27a	decrease Sp protein expression	induce caveolin-1	inhibition of the induced caveolin-1 response	induce transactivation	7.5	inhibited	induce Oil Red O staining
–	COC(=O)C12CCC(C(C)C)C1C1CCC3C4(C)C=C(C#N)C(=O)C(C)(C)C4CCC3(C)C1(C)CC2 (stereo not drawn) [CN-BA-Me, Methyl 2-cyano-lup-1-en-3-oxo-20-oate]	did not induce KLF4 expression	–	increased expression of ZBTB10	decreased expression of miR-27a	–	induce caveolin-1	inhibition of the induced caveolin-1 response	induce transactivation	–	inhibited	induce Oil Red O staining
1 to 5	C=C(C)[C@@H]1CC[C@]2(C(=O)O)CC[C@]3(C)[C@H](CC[C@@H]4[C@@]5(C)CC[C@H](O)C(C)(C)[C@@H]5CC[C@]43C)[C@@H]12 [betulinic acid, Betulinic acid]	–	inactive	–	–	–	–	–	–	–	–	–
